Laboratory results taken from the NIST ThermoML archive (doi:10.1016/j.jct.2014.01.002).

Test: excess molar enthalpy (molar enthalpy of mixing); xn = mol fraction of the nth substance listed
Settings: 298.15 K, 99 kPa, Liquid, Calvet calorimetry

C1CCCCC1 [cyclohexane] + CCCCCC
Settings | excess molar enthalpy [kcal/mol]
x1 = 0.0524 | 0.00813
x1 = 0.1136 | 0.017
x1 = 0.1603 | 0.0232
x1 = 0.2014 | 0.0282
x1 = 0.2485 | 0.0335
x1 = 0.3022 | 0.0392
x1 = 0.3647 | 0.0442
x1 = 0.4379 | 0.049
x1 = 0.4819 | 0.0509
x1 = 0.5388 | 0.0526
x1 = 0.5621 | 0.0528
x1 = 0.6166 | 0.0526
x1 = 0.6576 | 0.0516
x1 = 0.7177 | 0.0483
x1 = 0.7702 | 0.0435
x1 = 0.8085 | 0.0392
x1 = 0.8623 | 0.0318
x1 = 0.9276 | 0.0191

CCCCCO [pentan-1-ol] + CCCCCC
Settings | excess molar enthalpy [kcal/mol]
x1 = 0.0241 | 0.0686
x1 = 0.0501 | 0.0848
x1 = 0.0573 | 0.0887
x1 = 0.1085 | 0.103
x1 = 0.1504 | 0.112
x1 = 0.1912 | 0.121
x1 = 0.2341 | 0.127
x1 = 0.2905 | 0.129
x1 = 0.3433 | 0.13
x1 = 0.3934 | 0.128
x1 = 0.4452 | 0.125
x1 = 0.5771 | 0.0982
x1 = 0.5794 | 0.0985
x1 = 0.6531 | 0.0798
x1 = 0.6979 | 0.0672
x1 = 0.7463 | 0.0535
x1 = 0.803 | 0.0368
x1 = 0.9021 | 0.0151
